How the values were obtained:
Type in all cases: functional
SF-268 = assay: Cytotoxicity against human SF268 cells assessed as cell growth at 0.01 uM after 48 hrs by sulforhodamine B assay relative to control; settings: SF-268, 48 h, read-out: Activity
M14 = assay: Cytotoxicity against human M14 cells assessed as growth inhibition after 48 hrs by sulforhodamine B assay; settings: M14, 48 h
786-0 = assay: Cytotoxicity against human 786-0 cells assessed as cell growth at 0.1 uM after 48 hrs by sulforhodamine B assay relative to control; settings: 786-0, 48 h, read-out: Activity
OVCAR-3 = assay: Cytotoxicity against human OVCAR3 cells assessed as growth inhibition after 48 hrs by sulforhodamine B assay; settings: OVCAR-3, 48 h
TK-10 [1] = assay: Cytotoxicity against human TK10 cells assessed as growth inhibition after 48 hrs by sulforhodamine B assay; settings: TK-10, 48 h
OVCAR-8 = assay: Cytotoxicity against human OVCAR8 cells assessed as cell growth at 0.01 uM after 48 hrs by sulforhodamine B assay relative to control; settings: OVCAR-8, 48 h, read-out: Activity
MDA-MB-435 [2] = assay: Cytotoxicity against human MDA-MB-435 cells assessed as cell growth at 1 uM after 48 hrs by sulforhodamine B assay relative to control; settings: MDA-MB-435, 48 h, read-out: Activity
NCI-H226 [3] = assay: Cytotoxicity against human NCI-H226 cells assessed as cell growth at 0.1 uM after 48 hrs by sulforhodamine B assay relative to control; settings: NCI-H226, 48 h, read-out: Activity
UO-31 = assay: Cytotoxicity against human UO31 cells assessed as cell growth at 100 uM after 48 hrs by sulforhodamine B assay relative to control; settings: UO-31, 48 h, read-out: Activity
PC-3 = assay: Cytotoxicity against human PC3 cells assessed as cell growth at 100 uM after 48 hrs by sulforhodamine B assay relative to control; settings: PC-3, 48 h, read-out: Activity
Malme-3M = assay: Cytotoxicity against human MALME-3M cells assessed as cell growth at 10 uM after 48 hrs by sulforhodamine B assay relative to control; settings: read-out: Activity
NCI-H522 [4] = assay: Cytotoxicity against human NCI-H522 cells assessed as cell growth at 0.1 uM after 48 hrs by sulforhodamine B assay relative to control; settings: NCI-H522, 48 h, read-out: Activity
A549 = assay: Cytotoxicity against human A549/ATCC cells assessed as cell growth at 0.01 uM after 48 hrs by sulforhodamine B assay relative to control; settings: A549, 48 h, read-out: Activity
MDA-MB-435 [5] = assay: Cytotoxicity against human MDA-MB-435 cells assessed as cell growth at 0.01 uM after 48 hrs by sulforhodamine B assay relative to control; settings: MDA-MB-435, 48 h, read-out: Activity
A498 [6] = assay: Cytotoxicity against human A498 cells assessed as cell growth at 1 uM after 48 hrs by sulforhodamine B assay relative to control; settings: A498, 48 h, read-out: Activity
CCRF-CEM = assay: Cytotoxicity against human CCRF-CEM cells assessed as cell growth at 10 uM after 48 hrs by sulforhodamine B assay relative to control; settings: read-out: Activity
NCI-H460 = assay: Cytotoxicity against human NCI-H460 cells assessed as cell growth at 1 uM after 48 hrs by sulforhodamine B assay relative to control; settings: NCI-H460, 48 h, read-out: Activity
SK-MEL-28 = assay: Cytotoxicity against human SK-MEL-28 cells assessed as cell growth at 1 uM after 48 hrs by sulforhodamine B assay relative to control; settings: SK-MEL-28, 48 h, read-out: Activity
T47D = assay: Cytotoxicity against human T47D cells assessed as cell growth at 0.01 uM after 48 hrs by sulforhodamine B assay relative to control; settings: read-out: Activity
UACC-62 = assay: Cytotoxicity against human UACC62 cells assessed as growth inhibition after 48 hrs by sulforhodamine B assay; settings: UACC-62, 48 h
ACHN = assay: Cytotoxicity against human ACHN cells assessed as cell growth at 0.1 uM after 48 hrs by sulforhodamine B assay relative to control; settings: read-out: Activity
HCT-15 = assay: Cytotoxicity against human HCT15 cells assessed as cell growth at 0.1 uM after 48 hrs by sulforhodamine B assay relative to control; settings: HCT-15, 48 h, read-out: Activity
TK-10 [7] = assay: Cytotoxicity against human TK10 cells assessed as cell growth at 0.01 uM after 48 hrs by sulforhodamine B assay relative to control; settings: TK-10, 48 h, read-out: Activity
DU-145 = assay: Cytotoxicity against human DU145 cells assessed as cell growth at 0.01 uM after 48 hrs by sulforhodamine B assay relative to control; settings: DU-145, 48 h, read-out: Activity
KM12 = assay: Cytotoxicity against human KM12 cells assessed as growth inhibition after 48 hrs by sulforhodamine B assay; settings: KM12, 48 h
NCI-H226 [8] = assay: Cytotoxicity against human NCI-H226 cells assessed as cell growth at 100 uM after 48 hrs by sulforhodamine B assay relative to control; settings: NCI-H226, 48 h, read-out: Activity
NCI-H522 [9] = assay: Cytotoxicity against human NCI-H522 cells assessed as cell growth at 10 uM after 48 hrs by sulforhodamine B assay relative to control; settings: NCI-H522, 48 h, read-out: Activity
UACC-257 = assay: Cytotoxicity against human UACC257 cells assessed as cell growth at 0.1 uM after 48 hrs by sulforhodamine B assay relative to control; settings: UACC-257, 48 h, read-out: Activity
K562 = assay: Cytotoxicity against human K562 cells assessed as cell growth at 0.01 uM after 48 hrs by sulforhodamine B assay relative to control; settings: K562, 48 h, read-out: Activity
SK-MEL-5 = assay: Cytotoxicity against human SK-MEL-5 cells assessed as cell growth at 1 uM after 48 hrs by sulforhodamine B assay relative to control; settings: SK-MEL-5, 48 h, read-out: Activity
NCI-H322M = assay: Cytotoxicity against human NCI-H322M cells assessed as cell growth at 0.01 uM after 48 hrs by sulforhodamine B assay relative to control; settings: read-out: Activity
NCI-H226 [10] = assay: Cytotoxicity against human NCI-H226 cells assessed as cell growth at 10 uM after 48 hrs by sulforhodamine B assay relative to control; settings: NCI-H226, 48 h, read-out: Activity
SF-539 = assay: Cytotoxicity against human SF539 cells assessed as growth inhibition after 48 hrs by sulforhodamine B assay; settings: SF-539, 48 h
HL-60(TB) = assay: Cytotoxicity against human HL-60(TB) cells assessed as growth inhibition after 48 hrs by sulforhodamine B assay; settings: HL-60, 48 h
A498 [11] = assay: Cytotoxicity against human A498 cells assessed as cell growth at 0.01 uM after 48 hrs by sulforhodamine B assay relative to control; settings: A498, 48 h, read-out: Activity

With `COc1cc(C(=O)/C=C/c2cc(-c3ccc4c(c3)OCO4)n[nH]2)cc(OC)c1OC` the growth at 0.01 µM (SF-268) was 96%, the GI50 (M14) was 2.91 µM and the LC50 (concentration killing 50% of cells) (M14) was 37.8 µM. For the same compound, the TGI (M14) was 9.21 µM, the growth at 0.1 µM (786-0) was 98% and the GI50 (OVCAR-3) was 1.71 µM. It also gave an LC50 (OVCAR-3) of 7.17 µM, a TGI (OVCAR-3) of 3.5 µM and a GI50 (TK-10 [1]) of 2.9 µM. The LC50 (TK-10 [1]) was 25.6 µM, the TGI (TK-10 [1]) was 7.17 µM and the growth at 0.01 µM (OVCAR-8) was 98%. The growth at 1 µM (MDA-MB-435 [2]) was 94%, the growth at 0.1 µM (NCI-H226 [3]) was 93% and the growth at 100 µM (UO-31) was -95%. For the same compound, the growth at 100 µM (PC-3) was -84%, the growth at 10 µM (Malme-3M) was -41% and the growth at 0.1 µM (NCI-H522 [4]) was 90%. For the same compound, the growth at 0.01 µM (A549) was 100%, the growth at 0.01 µM (MDA-MB-435 [5]) was 96% and the growth at 1 µM (A498 [6]) was 79%. The growth at 10 µM (CCRF-CEM) was -26%, the growth at 1 µM (NCI-H460) was 90% and the growth at 1 µM (SK-MEL-28) was 92%. For the same compound, the growth at 0.01 µM (T47D) was 90%, the GI50 (UACC-62) was 1.81 µM and the LC50 (UACC-62) was 8.36 µM. The TGI (UACC-62) was 3.89 µM, the growth at 0.1 µM (ACHN) was 103% and the growth at 0.1 µM (HCT-15) was 101%. For the same compound, the growth at 0.01 µM (TK-10 [7]) was 93%, the growth at 0.01 µM (DU-145) was 102% and the GI50 (KM12) was 1.86 µM. It also gave an LC50 (KM12) of 7.97 µM, a TGI (KM12) of 3.85 µM and a growth at 100 µM (NCI-H226 [8]) of -46%. The growth at 10 µM (NCI-H522 [9]) was -71%, the growth at 0.1 µM (UACC-257) was 97% and the growth at 0.01 µM (K562) was 86%. The growth at 1 µM (SK-MEL-5) was 89%, the growth at 0.01 µM (NCI-H322M) was 101% and the growth at 10 µM (NCI-H226 [10]) was -41%. It also gave a GI50 (SF-539) of 1.33 µM, an LC50 (concentration killing 50% of cells) (SF-539) of 6.65 µM and a TGI (SF-539) of 2.98 µM. The GI50 (HL-60(TB)) was 2.17 µM, the LC50 (HL-60(TB)) was over 100 µM and the TGI (HL-60(TB)) was 6.49 µM. The growth at 0.01 µM (A498 [11]) was 89%.

Reference: ChEMBL document CHEMBL4138123, “Design, synthesis and biological evaluation of novel pyrazolochalcones as potential modulators of PI3K/Akt/mTOR pathway and inducers of apoptosis in breast cancer cells” (Eur J Med Chem, 2017)
